Measurements published in patent publication US6777412B2 (priority 1990, dated 2004).
Where two headings read alike, the source gives them in different places. Marks after values point to notes of the source that are not given here.

Assays:
Format in all cases: in vivo
Venturia inaequalis = assay: Foliar fungal disease test on plants: Venturia inaequalis (Vi)
Description: (§1) The compounds were tested against a variety of foliar fungal diseases of plants. The technique employed was as follows.
(§2) The plants were grown in John Innes Potting Compost (No.1 or 2) in 4 cm diameter minipots. The test compounds were formulated either by bead milling with aqueous Dispersol T or as a solution in acetone or acetone/ethanol which was diluted to the required concentration immediately before use. For the foliage diseases, the formulations (100 ppm active ingredient except where otherwise indicated) were sprayed onto the foliage and applied to the roots of the plants in the soil. The sprays were applied to maximum retention and the root drenches to a final concentration equivalent to approximately 40 ppm a.i. in dry soil. Tween 20, to give a final concentration of 0.05%, was added when the sprays were applied to cereals.
(§3) For most of the tests the compound was applied to the soil (roots) and to the foliage (by spraying) one or two days before the plant was inoculated with the disease. An exception was the test on Erysiphe graminis in which the plants were inoculated 24 hours before treatment. Foliar pathogens were applied by spray as spore suspensions onto the leaves of test plants. After inoculation, the plants were put into an appropriate environment to allow infection to proceed and then incubated until the disease was ready for assessment. The period between inoculation and assessment varied from four to fourteen days according to the disease and environment.
(§4) The disease control vas recorded by the following grading:
(§5) 3=trace-5% of disease on untreated plants
(§6) 2=6-25% of disease on untreated plants
(§7) 1=26-59% of disease on untreated plants
(§8) 0=60-100% of disease on untreated plants

Erysiphe graminis hordei = assay: Foliar fungal disease test on plants: Erysiphe graminis hordei (Egh)
Description: as §1, §2, §3, §4, §5, §6, §7, §8
Egh Erysiphe graminis hordei

Plasmopara viticola = assay: Foliar fungal disease test on plants: Plasmopara viticola (Pv)
Description: as §1, §2, §3, §4, §5, §6, §7, §8

Puccinia recondita = assay: Foliar fungal disease test on plants: Puccinia recondita (Pr)
Description: as §1, §2, §3, §4, §5, §6, §7, §8

[1] = system: Phytophthora infestans lycopersici
Pyricularia oryzae = system: Pyricularia oryzae
[2] = 100 ppm active ingredient foliar spray plus root drench (approx. 40 ppm a.i. in dry soil), one or two days before inoculation
[3] = 100 ppm active ingredient foliar spray plus root drench (approx. 40 ppm a.i. in dry soil), plants inoculated 24 hours before treatment

Row | Structure (SMILES) | disease control grading, Vi (Venturia inaegualis) (Venturia inaequalis; [2]) | disease control grading, Egh (Erysiphe graminis hordei) (Erysiphe graminis hordei; [3]) | disease control grading, Pv (Plasmopara viticola) (Plasmopara viticola; [2]) | disease control grading, Pr (Puccinia recondita) (Puccinia recondita; [2]) | disease control grading, Pil (Phytophthora infestans lycopersici) [1, 2] | disease control grading, Po (Pyricularia oryzae) (Pyricularia oryzae; [2]) | disease control grading, Vi (Venturia inaegualis) (Venturia inaequalis; 10 ppm foliar application only) | disease control grading, Egh (Erysiphe graminis hordei) (Erysiphe graminis hordei; 10 ppm foliar application only) | disease control grading, Pv (Plasmopara viticola) (Plasmopara viticola; 10 ppm foliar application only) | disease control grading, Pr (Puccinia recondita) (Puccinia recondita; 10 ppm foliar application only) | disease control grading, Pil (Phytophthora infestans lycopersici) ([1]; 10 ppm foliar application only) | disease control grading, Po (Pyricularia oryzae) (Pyricularia oryzae; 10 ppm foliar application only)
1 | CO/C=C(/C(=O)OC)c1ccccc1Oc1cc(OCCCc2ccccc2[N+](=O)[O-])ncn1 [361 of Table I] | 4 (4=no disease) | 4 (4=no disease) | 4 (4=no disease) | 4 (4=no disease) | 4 (4=no disease) | 4 (4=no disease) | – | – | – | – | – | –
2 | CO/C=C(/C(=O)OC)c1ccccc1Oc1cc(OCCc2ccccc2C(F)(F)F)ncn1 [363 of Table I] | 4 (4=no disease) | 4 (4=no disease) | 4 (4=no disease) | 4 (4=no disease) | 4 (4=no disease) | 4 (4=no disease) | – | – | – | – | – | –
3 | CO/C=C(/C(=O)OC)c1ccccc1Oc1cc(OCCc2ccccc2C)ncn1 [364 of Table I] | 4 (4=no disease) | 4 (4=no disease) | 4 (4=no disease) | 4 (4=no disease) | 4 (4=no disease) | 4 (4=no disease) | – | – | – | – | – | –
4 | CO/C=C(/C(=O)OC)c1ccccc1Oc1cc(OCCc2ccccc2OC)ncn1 [365 of Table I] | 4 (4=no disease) | 4 (4=no disease) | 4 (4=no disease) | 4 (4=no disease) | 4 (4=no disease) | 4 (4=no disease) | – | – | – | – | – | –
5 | CO/C=C(/C(=O)OC)c1ccccc1Oc1cc(OCCc2ccccc2F)ncn1 [366 of Table I] | 4 (4=no disease) | 4 (4=no disease) | 4 (4=no disease) | 4 (4=no disease) | 4 (4=no disease) | 4 (4=no disease) | – | – | – | – | – | –
6 | CO/C=C(/C(=O)OC)c1ccccc1Oc1cc(NC(=S)c2ccccc2O)ncn1 [367 of Table I] | – | – | – | – | – | – | 2^a (2=6-25% of disease on untreated plants) | 3^a (3=trace-5% of disease on untreated plants) | 4^a (4=no disease) | 4^a (4=no disease) | 0^a (0=60-100% of disease on untreated plants) | 0^a (0=60-100% of disease on untreated plants)
7 | CO/C=C(/C(=O)OC)c1ccccc1Oc1cc(OCCc2ccccc2Cl)ncn1 [368 of Table I] | 4 (4=no disease) | 4 (4=no disease) | 4 (4=no disease) | 4 (4=no disease) | 3 (3=trace-5% of disease on untreated plants) | 3 (3=trace-5% of disease on untreated plants) | – | – | – | – | – | –
8 | CO/C=C(/C(=O)OC)c1ccccc1Oc1cc(OC(C#N)c2ccccc2)ncn1 (centres unmarked) [369 of Table I] | 4 (4=no disease) | 4 (4=no disease) | 4 (4=no disease) | 4 (4=no disease) | 3 (3=trace-5% of disease on untreated plants) | 4 (4=no disease) | – | – | – | – | – | –
9 | CO/C=C(/C(=O)OC)c1ccccc1Oc1cc(OCCc2c(F)cccc2F)ncn1 [370 of Table I] | 4 (4=no disease) | 4 (4=no disease) | 4 (4=no disease) | 4 (4=no disease) | 4 (4=no disease) | 4 (4=no disease) | – | – | – | – | – | –
10 | CO/C=C(/C(=O)OC)c1ccccc1Oc1cc(Nc2ccccc2O)ncn1 [379 of Table I] | – | 0 (0=60-100% of disease on untreated plants) | 4 (4=no disease) | 3 (3=trace-5% of disease on untreated plants) | 0 (0=60-100% of disease on untreated plants) | 0 (0=60-100% of disease on untreated plants) | – | – | – | – | – | –
